The conditions of data set [1]: 25.0° C., 0.10M KNO3; from Lima et al. 2012; cited from earlier work.
The conditions of data set [2]: cited from earlier work; for b) thermodynamic stability: log K[CuL]: overview table, ligands of the prior art (* estimation by Anderson and Ferdani 2009).
A short description of data set [3]: Potentiometric titrations: stability constants and pM of Cu^2+ complexes. It counts as physicochemical. Conditions: for b) thermodynamic stability: pCu: overview table, calculated pM. The protocol: Equipment and work conditions. The potentiometric setup has been described in Roger, M. et al. Inorg. […] Ligand solutions were prepared at about 2.0×10^−3 M, and the Cu^2+ and Zn^2+ solutions at ca. 0.05 M from analytical grade nitrate salts and standardized by complexometric titrations with H4edta (ethylenediaminetetraacetic acid). Sample solutions for titration contained approximately 0.04 mmol of ligand in a volume of 30 mL where the ionic strength was kept at 0.10 M using KNO3 as background electrolyte. Metal cations were added at 0.9 equiv. of the ligand amount in complexation titrations. Batch titrations were prepared in a similar way but with each titration point corresponding to 1/10 of the amount of a conventional titration sample.
(§1) Measurements. All measurements were carried out at 25.0±0.1° C. under inert atmosphere. The electromotive force of the sample solutions was measured after calibration of the electrodes by titration of a standard HNO3 solution at 2.0×10^−3 M in the work conditions. The [H^+] of the solutions was determined by measurement of the electromotive force of the cell, E=E^o′+Q log [H^+]+Ej. The term pH is defined as −log [H^+]. E^o′ and Q were determined from the acid region of the calibration curves. Deviations from the Nernst law at very low pH (pH<2.5) were corrected with the VLpH software (Calibration software from the maker of Hyperquad available for free at http://www.hyperquad.co.uk/), which performs a [H^+] correction based on a very low pH calibration procedure.
(§2) Calculations. The potentiometric data were refined with the Hyperquad software, and speciation diagrams were plotted using the HySS software. The overall equilibrium constants βi^H and βMmHhL1 are defined by βMmHhL1=[MmHhLl]/[M]^m[H]^h[L]^l (βi^H=[HhLl]/[H]^h[L]^l and βML-1L=βML(OH)×Kw). Differences in log units between the values of protonated (or hydrolysed) and non-protonated constants provide the stepwise (log K) reaction constants (being KMmHhL1=[MmHhLl]/[MmHh-1Ll][H]). The errors quoted are the standard deviations calculated by the fitting program from all the experimental data for each system.
(§3) The stability constants of the complexes formed by Hcb-te1pa with Cu^2+ and Zn^2+ were determined by potentiometric titrations in aqueous solution at 25.0° C. in 0.10 M KNO3 ionic strength (Table 2).
During titrations, each experimental point included a supplementary equilibration time in order to yield fully stabilized measurements. […] For this reason, batch titrations were prepared in the range of pH=4-6 and were left to equilibrate until full stabilization, while conventional titrations were used for the remaining pH regions.
For a correct comparison of the thermodynamic stability of the complexes of Hcb-te1pa with the corresponding values of other ligands from the literature, the pM values that take into account the variable basicity properties of different ligands were also calculated (Table 3). […] The thermodynamic stability is not the only important criterion to determine the efficiency of metal complexation because, depending on the application, other factors such as kinetic inertness or in vivo stability can be more important.

The conditions of data set [4]: cited from earlier work; for c) inertness vs Zn: log K[ZnL]: overview table, ligands of the prior art (** Delgado 1982, *** Chaves 1992).
Data set [5] in a line: Potentiometric titrations: stability constants and pM of Zn^2+ complexes. Format: physicochemical. As to conditions: for c) inertness vs Zn: pZn: overview table, calculated pM. The protocol:
Equipment and work conditions. The potentiometric setup has been described in Roger, M. et al. Inorg. Chem. 2013, 52, 5246-5259. The titrant was a KOH solution prepared at ca. 0.1 M from a commercial ampoule of analytical grade, and its accurate concentration was obtained by application of the Gran's method upon titration of a standard HNO3 solution (Rossotti, F. J. and Rossotti, H. J. J. Chem. Educ. 1965, 42, 375-378). Ligand solutions were prepared at about 2.0×10^−3 M, and the Cu^2+ and Zn^2+ solutions at ca. 0.05 M from analytical grade nitrate salts and standardized by complexometric titrations with H4edta (ethylenediaminetetraacetic acid). Sample solutions for titration contained approximately 0.04 mmol of ligand in a volume of 30 mL where the ionic strength was kept at 0.10 M using KNO3 as background electrolyte. Metal cations were added at 0.9 equiv. of the ligand amount in complexation titrations. Batch titrations were prepared in a similar way but with each titration point corresponding to 1/10 of the amount of a conventional titration sample. Batch titration points were incubated in tightly closed vials at 25° C. until potential measurements attained complete stability, which happened within a week.
as §1, with “procedure. The liquid-junction potential, Ej, was otherwise found to be negligible for pH >2.5 under the experimental conditions used. […] Each titration consisted of 80-100 equilibrium points in the range of pH 2.5-11.5 (or 1.5-11.5 for Cu^2+ complexations), and at least two replicate titrations were performed for each particular system.” for “procedure.”
as §2, §3
The equilibrium of formation of the copper(II) and especially the zinc(II) complexes is slow in the acidic pH range. In the case of Cu^2+, the complexation is almost complete from low pH but relatively slow up to pH=4. To overcome this double problem, conventional titrations were performed at pH values below 2 in order to observe a significant percentage of free metal ion (at least 18%) and thus allow for determination of the corresponding stability constant, while giving the solution enough time to reach equilibrium prior to the start of the titration. During titrations, each experimental point included a supplementary equilibration time in order to yield fully stabilized measurements. […]

For data set [6] the following is noted: overview table; copper chelates of prior-art ligands; cited from earlier work.
The conditions of data set [7]: overview table, cited from earlier work; for a) metallation kinetics: time required for complete (>99%) Cu complexation (in words): ligands of the prior art.
For data set [8] the following is noted: cited from earlier work; for half-life (t1/2), acid-assisted dissociation of copper(II) complex: literature value; for d) kinetic inertness: half-life (t1/2): copper chelates of prior-art ligands.
Where [9] appears, read: 25.0° C., I = 0.10M KNO3, from Lima et al. 2012.
[10] abbreviates: pH = 7.4, 100% excess of ligand, [M^2+]tot = 1 × 10^−5 M.

Where two headings read alike, the source gives them in different places.

For `O=C(O)c1cccc(CN2CCCNCCNCCCNCC2)n1` [Hte1pa], in data set [1], the “log βi^H, L + 2 H^+ ⇌ H2L” value is on record as 21.66 log units; the “log βi^H, L + 3 H^+ ⇌ H3L” value is 24.37 log units; the “log βi^H, L + 4 H^+ ⇌ H4L” value is 26.07 log units; the “log βi^H, L + H^+ ⇌ HL” value was 11.55 log units. In addition, in data set [2] (setting [9]), the “log KMLHh, CuL + H^+ ⇌ CuHL” value is on record as 2.17 log units; the “log KMLHh, CuLOH + H^+ ⇌ CuL” value is 11.15 log units; the “log KMLHh, Cu^2+ + L ⇌ CuL” value was 25.5 log units; the “log βMLHh, Cu^2+ + H^+ + L ⇌ CuHL” value is 27.67 log units. Moreover, in data set [2] (setting [9]), the “log βMLHh, Cu^2+ + L ⇌ CuL” value is recorded as 25.5 log units and the “log βMLHh, Cu^2+ + L ⇌ CuLOH + H^+” value was 14.35 log units. Further, the “b) thermodynamic stability: log K[CuL]” value in data set [2] was 25.50. The “b) thermodynamic stability: pCu” value in data set [3] was 18.64. Moreover, the “Calculated pM, Cu^2+” value in data set [3] (setting [10]) is given as 18.64. In data set [4] (setting [9]), the “log KMLHh, ZnL + H^+ ⇌ ZnHL” value is listed as 2.52 log units; the “log KMLHh, ZnLOH + H^+ ⇌ ZnL” value is 11.02 log units; the “log KMLHh, Zn^2+ + L ⇌ ZnL” value is given as 18.86 log units; the “log βMLHh, Zn^2+ + H^+ + L ⇌ ZnHL” value is on record as 21.38 log units. Further, in data set [4] (setting [9]), the “log βMLHh, Zn^2+ + L ⇌ ZnL” value is 18.86 log units and the “log βMLHh, Zn^2+ + L ⇌ ZnLOH + H^+” value is 7.84 log units. Moreover, the “c) inertness vs Zn: log K[ZnL]” value in data set [4] is listed as 18.86. Further, the “c) inertness vs Zn: pZn” value in data set [5] is reported as 12.00. In addition, the “Calculated pM, Zn^2+” value in data set [5] (setting [10]) is listed as 12.00. In addition, in data set [6], the “e) stability upon reduction, Cu(II) -> Cu (I): reduction potential” value is recorded as −1.05 V and the “e) stability upon reduction, Cu(II) -> Cu (I): reversibility” value is given as “quasi-reversible”. Also, the “a) metallation kinetics: time required for complete (>99%) Cu complexation” value in data set [7] (ligand of the prior art) is listed as 3 min. In addition, in data set [8] (1M HCl, 25° C.), the “half-life (t1/2), acid-assisted dissociation of copper(II) complex” value (“half-life … of copper(II) complex” for short) is 0.533 h. In addition, the “half-life … of copper(II) complex” value in data set [8] (5M HClO4, 25° C.) is 2.4 h. The “d) kinetic inertness: half-life (t1/2)” value in data set [8] (HClO4, 5M, 25° C.) is on record as 144 min.

Consider `O=C(O)CN1CCN2CCN(CC1)CCN(CC(=O)O)CC2` [cb-do2a], for which, in data set [6], the “e) stability upon reduction, Cu(II) -> Cu (I): reduction potential” value is −0.72 V and the “e) stability upon reduction, Cu(II) -> Cu (I): reversibility” value is listed as “irreversible”. In addition, the “a) metallation kinetics: time required for complete (>99%) Cu complexation (in words)” value in data set [7] is given as “too slow”. Besides, the “half-life … of copper(II) complex” value in data set [8] (5M HCl, 30° C.) was less than 0.033 h. Moreover, the “d) kinetic inertness: half-life (t1/2)” value in data set [8] (HCl, 5M, 30° C.) is given as less than 2 min. Further, in data set [8] (HCl, 5M, 90° C.), the “d) kinetic inertness: half-life (t1/2)” value is given as less than 3 min.

`O=C(O)CN1CCCN2CCN(CCCN(CC(=O)O)CC2)CC1` [cb-te2a]: the “b) thermodynamic stability: log K[CuL]” value in data set [2] is given as 27.10*. Besides, in data set [6], the “e) stability upon reduction, Cu(II) -> Cu (I): reduction potential” value is −0.88 V and the “e) stability upon reduction, Cu(II) -> Cu (I): reversibility” value is given as “quasi-reversible”. In data set [7], the “a) metallation kinetics: time required for complete (>99%) Cu complexation (in words)” value is listed as “too slow”. Also, in data set [8] (5M HCl, 90° C.), the “half-life … of copper(II) complex” value is 154 h. Moreover, the “d) kinetic inertness: half-life (t1/2)” value in data set [8] (HCl, 5M, 90° C.) was 9240 min.

Consider `O=C(O)CN1CCN(CC(=O)O)CCN(CC(=O)O)CCN(CC(=O)O)CC1` [dota, 1,4,7,10-tetraazacyclododecane-1,4,7,10-tetraacetic acid], for which, in data set [2], the “b) thermodynamic stability: log K[CuL]” value is 22.21. Further, the “b) thermodynamic stability: pCu” value in data set [3] is recorded as 15.19. Further, the “c) inertness vs Zn: log K[ZnL]” value in data set [4] was 21.01***. In addition, in data set [5], the “c) inertness vs Zn: pZn” value is reported as 15.01. For the same molecule, in data set [6], the “e) stability upon reduction, Cu(II) -> Cu (I): reduction potential” value is −0.74 V and the “e) stability upon reduction, Cu(II) -> Cu (I): reversibility” value was “irreversible”. For the same molecule, the “a) metallation kinetics: time required for complete (>99%) Cu complexation (in words)” value in data set [7] was “fast”. In addition, in data set [8] (HCl, 5M, 90° C.), the “d) kinetic inertness: half-life (t1/2)” value is less than 1 min. Moreover, the “d) kinetic inertness: half-life (t1/2)” value in data set [8] (HClO4, 5M, 25° C.) is listed as “about 5 min”.

As to `O=C(O)CN1CCCN(CC(=O)O)CCN(CC(=O)O)CCCN(CC(=O)O)CC1` [teta], in data set [2], the “b) thermodynamic stability: log K[CuL]” value is 21.60. The “b) thermodynamic stability: pCu” value in data set [3] is given as 15.19. In addition, the “c) inertness vs Zn: log K[ZnL]” value in data set [4] was 15.81**. The “c) inertness vs Zn: pZn” value in data set [5] is listed as 10.08. Further, the “e) stability upon reduction, Cu(II) -> Cu (I): reduction potential” value in data set [6] is listed as −0.98 V. Also, the “e) stability upon reduction, Cu(II) -> Cu (I): reversibility” value in data set [6] is reported as “irreversible”. In addition, in data set [7], the “a) metallation kinetics: time required for complete (>99%) Cu complexation (in words)” value is “fast”. The “d) kinetic inertness: half-life (t1/2)” value in data set [8] (HCl, 5M, 30° C.) was 5040 min; in data set [8] (HCl, 5M, 90° C.), 4.5 min; in data set [8] (HClO4, 5M, 25° C.), “about 8 min”.

Values taken from US10434199B2, “Picolinate cross-bridged cyclams, chelates with metallic cations and use thereof” (UNIVERSITÉ DE BRETAGNE OCCIDENTALE, priority 2013, dated 2019).
